Measurements from patent US12290510B2, “Polyvalent derivatives of emoxypine” (Riesner Verwaltungs GMBH, priority 2019, dated 2025).
Values joined by “and” are separate entries in the source; they are usually repeats but may differ in a detail not shown here. Identical values can stand only once.

Key:
α-synuclein fibrils [1] = target: T1, α-synuclein fibrils (Homo sapiens, UniProt P37840); experiment: Disaggregation of α-synuclein fibrils, thioflavin T (ThT) fluorescence emission at 482 nm; assay type: biochemical
Protocol: FIG. 1A depicts emission intensity of ThT at 482 nm (λexc=450 nm), in the presence of α-synuclein amyloids fibrils, with and without MHP-tren triimine (r70, light blue trace and yellow trace, respectively) from 1 minute to 3 days (72 h), where the bars from left to right in each set of histograms represents: control ThT; MHP tren-triimine; Aggregates+ThT+MHP tren-triimine; control ThT+MHP tren-triimine; and Aggregates+ThT, respectively.
FIG. 2 depicts emission intensity of ThT at 482 nm (λexc=450 nm), in the presence of α-synuclein amyloids fibrils, using Emoxypine r200, Emoxypine r100, MHP-tren triimine (also known as tri imino-emoxypine) r70 (light blue trace and yellow trace, respectively) from 1 minute to 3 days (72 h), where the bars from left to right in each set of histograms represents: α-synuclein+Emoxypine r200; α-synuclein+Emoxypine r100; and α-synuclein+MHP tren-triimine r70, respectively. The far leftmost bar of the graph, titled “Before addition of SOM” represents a sample without emoxypine or MHP tren-triimine, i.e. with 100% of α-synuclein aggregates left.
Disaggregation of α-synuclein fibrils using MHP-tren triimine (i.e., tri imino-emoxypine) was studied. The ratio of MHP-tren triimine:α-synuclein was 70 (r70).
Fluorescence measurements were performed by comparing the emission of thiovlavin T (ThT) in the presence of aggregates, without and with MHP-tren triimine at different times after the addition of MHP-tren triimine, from one minute to several days (λ emission of interest=482 nm, λ excitation=450 nm). Fluorescent measurements were also performed by comparing the emission of thiovlavin T (ThT) in the presence of aggregates and either emoxypine or MHP-tren triimine. The results (see, FIG. 1A-1B, FIG. 2 and Tables 1-2, below) show higher solubilization percentages using MHP-tren triimine as compared to emoxypine. […] The long-term efficiency of the triimine molecule is therefore better than that of its triamide analogue.

α-synuclein fibrils [2] = target: T1, α-synuclein fibrils; experiment: Scanning electron microscope (SEM) images of α-synuclein fibrils without and with the triimine; conditions: sample with the triimine molecule (FIG. 3B) vs “superaggregated” structures without (FIG. 3A)

Structure (SMILES): CCc1nc(C)ccc1O [Emoxypine, emoxypine]
- Percent of Solubilization (α-synuclein fibrils [1]; r100, 1 min): 50%
- Percent of Solubilization (α-synuclein fibrils [1]; r100, 30 min): 59%
- Percent of Solubilization (α-synuclein fibrils [1]; r100, 1 h): 48%
- Percent of Solubilization (α-synuclein fibrils [1]; r100, 24 h): 53%
- Percent of Solubilization (α-synuclein fibrils [1]; r100, 48 h): 49%
- Percent of Solubilization (α-synuclein fibrils [1]; r100, 72 h): 62%
- Percent of Solubilization (α-synuclein fibrils [1]; r200, 1 min): 69%
- Percent of Solubilization (α-synuclein fibrils [1]; r200, 30 min): 65%
- Percent of Solubilization (α-synuclein fibrils [1]; r200, 1 h): 61%
- Percent of Solubilization (α-synuclein fibrils [1]; r200, 24 h): 60%
- Percent of Solubilization (α-synuclein fibrils [1]; r200, 48 h): 61%
- Percent of Solubilization (α-synuclein fibrils [1]; r200, 72 h): 63%

Structure (SMILES): Cc1ccc(O)c(/C=N/CCN(CC/N=C/c2nc(C)ccc2O)CC/N=C/c2nc(C)ccc2O)n1 [MHP-tren triimine, tri imino-emoxypine]
- Appearance of α-synuclein sample in SEM images (α-synuclein fibrils [2]): no apparent fiber or big aggregates-only small dots are visible
- Percentage of solubilization (α-synuclein fibrils [1]; MHP-tren triimine:α-synuclein ratio 70 (r70), 1 min after addition): 27%
- Percentage of solubilization (α-synuclein fibrils [1]; r70, 30 min after addition): 47.1% and 57%
- Percentage of solubilization (α-synuclein fibrils [1]; r70, 1 h after addition): 71%
- Percentage of solubilization (α-synuclein fibrils [1]; r70, 24 h after addition): 72.8% and 73%
- Percentage of solubilization (α-synuclein fibrils [1]; r70, 48 h after addition): 79.5% and 79%
- Percentage of solubilization (α-synuclein fibrils [1]; r70, 72 h (3 days) after addition): 86% and 86.1%
